From patent EP1658093B1, “USE OF A MIXTURE CONTAINING OXYTOCIN AND TESTOSTERON OR ESTRADIOL FOR TREATING DISTURBANCES OF PSYCHOSOCIAL EXPERIENCES AND BEHAVIOUR” (Beier, Klaus M., priority 2003, dated 2007) come the findings set out here.

A short description of experiment [1]: Double-blind study: psychophysiological reaction patterns (SMARD-Watch), dynamic cross-correlation analysis. It is filed as in vivo. To be noted: mean over all 4 Probanden; Oxytocin nasal 4 or 8 I.E.; sex hormone as dermal patch (Estradiol in men, Testosteron in women); low coefficient = balanced sympathetic/parasympathetic regulation. The method, then:
(§1) Untersucht wurden 4 Probanden, zwei heterosexuelle Paare mit jeweils mehr als 20jähriger Partnerschaftsdauer. In einer Doppelblindstudie wurden Oxytocin gegen Placebo, die Kombinationen Oxytocin/Estradiol an Männern und Oxytocin/Testosteron an Frauen gegen Placebo und gegen den "Austausch von Intimität" untersucht.
(§2) Den Männern wurde Oxytocin nasal als Spraystoß (1 Spraystoß Syntocinon® = 4 I.E. Oxytocin) und Estradiol dermal als Membranpflaster(2 mg Estradiol mit der Freisetzungsrate von ca. […]; Estraderm TTS® 25) verabreicht.
(§3) Den Frauen wurde Oxytocin nasal als Spraystoß (1 Spraystoß Syntocinon® = 4 I.E. Oxytocin) und Testosteron dermal als Membranpflaster (12,2 mg Testosteron mit einer Freisetzungsrate von ca. 0,1 mg/h; Androderm® 2,5 mg) verabreicht.
(§4) Die Verabreichung von Oxytocin erfolgte nasal und doppelblind (Placebo und Verum) in zwei Dosierungen, 1 Sprühstoß = 4 I.E. Oxytocin und zwei Sprühstöße = 8 I.E. Oxytocin, jeweils fortlaufend im Abstand von einer Stunde. Oxytocin wurde sowohl vor als auch nach der Anlage des Membranpflasters verabreicht. Insgesamt wurden 4 nasale Interventionen vor und nach der zusätzlichen Sexualhormongabe durchgeführt, wobei das Verum 2 mal in unterschiedlichen Dosierungen gegeben wurde. Die ersten nasalen Interventionen erfolgten nach 2 Stunden Wirkzeit der Sexualhormone. […]

Experiment [2] can be described thus: Double-blind study: subjective state descriptions by questionnaire. Type of experiment: in vivo. To be noted: 4 Probanden. The method, then:
as §1, §2, §3, §4

On to Oxytocin, for which the Kreuzkorrelationskoeffizient in experiment [1] is 0,51. Besides, the “subjektive Zustandsbeschreibungen (Selbstwahrnehmung)” value in experiment [2] is listed as “stärker in Richtung Entspannung tendierte”.
